Reference: US12569480B2, “Methods of treating fibrosis using compounds that promote glucose oxidation” (IMBRIA PHARMACEUTICALS, INC., priority 2019, dated 2026)

Columns and labels:
TAC mice [1] = assay: TAC mice, 6-week minipump treatment: echocardiography; assay type: in vivo; settings: in words
TAC mice [2] = assay: TAC mice, 6-week minipump treatment: cardiac fibrosis, Masson's trichrome; assay type: in vivo; settings: 6 weeks, TMZ 6, NA 2.4, CV-8814 7.5, CV-8972 10 mg/kg/day, TAC control 10.7±1
TAC mice [3] = assay: TAC mice, 6-week minipump treatment: heart weight and heart weight/body weight; assay type: in vivo; settings: in words, 6 weeks, NA 2.4 mg/kg/day
TAC mice [4] = assay: TAC mice, 6-week minipump treatment: left ventricular pressure by Mikro-tip catheter; assay type: in vivo; settings: 6 weeks, CV-8972 10 mg/kg/day, TAC control −5697±417
[5] = system: isolated hearts after ischemia-reperfusion; assay: Ischemia-reperfusion (IR), isolated hearts (Langendorff): cardiac function (left ventricular pressure); set-up: species or system mice; settings: in words; TMZ 20 μM; TNF 2 μM each; TNS 20 μM each
Procedure: FIG. 38 is a schematic of the ischemia-reperfusion (IR) method used to analyze the effects of selected compositions on coronary flow, cardiac function, and infarct size. […] At 20 minutes, ischemia was induced, and coronary flow was analyzed. At 50 minutes, reperfusion was initiated to restore blood flow. At 170 minutes, coronary flow and cardiac function was analyzed, and then the hearts were preserved, sectioned, and infarct size was measured by triphenyltetrazolium chloride (TTC) staining.

[6] = to the end of the study (6 weeks)

In the case of `COc1ccc(CN2CCN(CCO)CC2)c(OC)c1OC` [CV-8814, 2-(4-(2,3,4-trimethoxybenzyl)piperazin-1-yl)ethan-1-ol], the EF (TAC mice [1]; 3-weeks after TAC) is reported as “significantly increased”, the EF (TAC mice [1]; [6]) is reported as “protective effect was sustained” and the “cardiac fibrosis (fibrotic area to whole heart tissue area)” value (TAC mice [2]) is reported as 6.6±0.6%.
In the case of `O=C(O)c1cccnc1` [NA, nicotinic acid, reference compound], the “effect on cardiac remodeling” value (TAC mice [3]) is reported as “no significant effect on cardiac remodeling”, the IVSd (TAC mice [1]; TAC mice, NA 2.4 mg/kg/day) is reported as “decreased IVSd” and the LV mass (TAC mice [1]; TAC mice, NA 2.4 mg/kg/day) is reported as “no effect on LV mass”.
`COc1ccc(CN2CCN(CCOC(=O)c3cccnc3)CC2)c(OC)c1OC` [CV-8972, 2-(4-(2,3,4-trimethoxybenzyl)piperazin-1-yl)ethyl nicotinate] was tested, and the “−dp/dtm” value (TAC mice [4]) was −4126±339 mm Hg/sec, the EF (TAC mice [1]; 3-weeks after TAC) was “significantly increased” and the EF (TAC mice [1]; [6]) was “protective effect was sustained”.
`COc1ccc(CN2CCNCC2)c(OC)c1OC` [TMZ, trimetazidine] was tested, and the “cardiac function (LVDP) after IR” value [5] was “prevented a decline in cardiac function”.
